# Measured values: ChEMBL document CHEMBL1201862, “PubChem BioAssay data set” (2004)
# The source made the active and inactive calls.
# What was measured:
# [1] = target: FAD-linked sulfhydryl oxidase ALR (Homo sapiens, UniProt P55789); assay: inhibitors of human ALR sulfhydryl oxidase, dose response, biochemical, H2O2 detection, luminescence, cherry-pick (AID 493248)
# [2] = target: T1, Zinc finger protein mex-5 (Caenorhabditis elegans, UniProt Q9XUB2); assay: MEX-5/TCR-2 RNA interaction inhibitors, dose response, biochemical, C. elegans, fluorescence polarization (AID 1960)
# T1 sequence (Q9XUB2 whole entry): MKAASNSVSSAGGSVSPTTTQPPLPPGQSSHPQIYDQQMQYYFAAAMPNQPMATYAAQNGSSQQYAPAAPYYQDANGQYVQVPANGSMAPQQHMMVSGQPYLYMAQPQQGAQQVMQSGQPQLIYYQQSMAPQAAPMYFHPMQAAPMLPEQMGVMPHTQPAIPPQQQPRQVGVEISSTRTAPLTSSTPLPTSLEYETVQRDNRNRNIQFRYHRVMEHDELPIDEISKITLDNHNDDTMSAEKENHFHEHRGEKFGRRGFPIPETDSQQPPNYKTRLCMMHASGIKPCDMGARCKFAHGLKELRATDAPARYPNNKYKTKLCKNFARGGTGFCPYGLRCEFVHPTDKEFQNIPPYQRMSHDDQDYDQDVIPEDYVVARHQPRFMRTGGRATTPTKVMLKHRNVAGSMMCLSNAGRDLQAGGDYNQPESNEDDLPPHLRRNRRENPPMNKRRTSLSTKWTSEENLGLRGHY
# [3] = inhibitors of SNCA 5'UTR-driven reporter translation, confirmation, H4 neuroglioma cells, luminescence (AID 1988); type: functional, cell-based
# [4] = target: T2, Protein RecA (Mycobacterium tuberculosis, UniProt P9WHJ3); assay: Fluorescence Cell-Free Homogeneous Dose Retest to Identify Inhibitors of RecA-Intein Splicing Activity. [Related pubchem assays (depositor defined):AID2097, AID2223, AID489010, AID492950]; type: functional
# T2 sequence (P9WHJ3 whole entry): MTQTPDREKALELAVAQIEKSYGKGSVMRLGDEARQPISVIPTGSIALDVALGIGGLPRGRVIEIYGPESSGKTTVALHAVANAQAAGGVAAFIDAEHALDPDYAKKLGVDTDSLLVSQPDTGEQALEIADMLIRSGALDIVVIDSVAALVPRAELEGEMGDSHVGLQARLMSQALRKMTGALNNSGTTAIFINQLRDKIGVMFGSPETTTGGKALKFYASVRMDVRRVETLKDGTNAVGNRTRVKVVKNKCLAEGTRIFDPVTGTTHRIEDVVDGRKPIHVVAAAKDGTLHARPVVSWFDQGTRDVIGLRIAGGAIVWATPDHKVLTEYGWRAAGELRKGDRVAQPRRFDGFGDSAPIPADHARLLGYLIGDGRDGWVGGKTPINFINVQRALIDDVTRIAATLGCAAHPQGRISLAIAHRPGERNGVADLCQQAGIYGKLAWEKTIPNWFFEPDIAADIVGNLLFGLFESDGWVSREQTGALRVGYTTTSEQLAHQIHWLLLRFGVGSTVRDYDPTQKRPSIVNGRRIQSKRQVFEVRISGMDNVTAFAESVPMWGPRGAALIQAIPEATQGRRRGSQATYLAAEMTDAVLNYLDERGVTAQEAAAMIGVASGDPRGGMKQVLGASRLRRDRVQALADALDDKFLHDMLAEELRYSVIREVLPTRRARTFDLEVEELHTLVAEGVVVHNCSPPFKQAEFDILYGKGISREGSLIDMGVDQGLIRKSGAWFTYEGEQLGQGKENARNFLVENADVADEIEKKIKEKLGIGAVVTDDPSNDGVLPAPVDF
# [5] = target: T3, RNA-binding protein pos-1 (Caenorhabditis elegans, UniProt G5EF15); assay: inhibitors of POS-1/mex-3 RNA binding, dose response, biochemical, fluorescence polarization (AID 1964);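 also: purified POS-1 fused to maltose binding protein made in E. coli; potency of compounds blocking POS-1 binding to fluorescent RNA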
# T3 sequence (G5EF15 whole entry): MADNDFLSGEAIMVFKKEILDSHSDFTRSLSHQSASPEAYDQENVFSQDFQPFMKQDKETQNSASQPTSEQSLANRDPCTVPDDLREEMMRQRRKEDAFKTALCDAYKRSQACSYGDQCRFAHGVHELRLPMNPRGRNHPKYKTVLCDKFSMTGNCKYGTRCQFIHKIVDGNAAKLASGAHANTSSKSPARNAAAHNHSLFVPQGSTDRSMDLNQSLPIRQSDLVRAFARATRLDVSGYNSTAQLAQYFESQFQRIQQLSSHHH
# [6] = target: Dual specificity tyrosine-phosphorylation-regulated kinase 1A (Rattus norvegicus, UniProt Q63470); type: biochemical, Homo sapiens
# [7] = target: Large T antigen (Simian virus 40, UniProt P03070); type: functional, Betapolyomavirus macacae;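 also: Confirmatory-stage PubChem screen for compounds that inhibit SV40 T antigen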
# Large T antigen, sequence (P03070 whole entry): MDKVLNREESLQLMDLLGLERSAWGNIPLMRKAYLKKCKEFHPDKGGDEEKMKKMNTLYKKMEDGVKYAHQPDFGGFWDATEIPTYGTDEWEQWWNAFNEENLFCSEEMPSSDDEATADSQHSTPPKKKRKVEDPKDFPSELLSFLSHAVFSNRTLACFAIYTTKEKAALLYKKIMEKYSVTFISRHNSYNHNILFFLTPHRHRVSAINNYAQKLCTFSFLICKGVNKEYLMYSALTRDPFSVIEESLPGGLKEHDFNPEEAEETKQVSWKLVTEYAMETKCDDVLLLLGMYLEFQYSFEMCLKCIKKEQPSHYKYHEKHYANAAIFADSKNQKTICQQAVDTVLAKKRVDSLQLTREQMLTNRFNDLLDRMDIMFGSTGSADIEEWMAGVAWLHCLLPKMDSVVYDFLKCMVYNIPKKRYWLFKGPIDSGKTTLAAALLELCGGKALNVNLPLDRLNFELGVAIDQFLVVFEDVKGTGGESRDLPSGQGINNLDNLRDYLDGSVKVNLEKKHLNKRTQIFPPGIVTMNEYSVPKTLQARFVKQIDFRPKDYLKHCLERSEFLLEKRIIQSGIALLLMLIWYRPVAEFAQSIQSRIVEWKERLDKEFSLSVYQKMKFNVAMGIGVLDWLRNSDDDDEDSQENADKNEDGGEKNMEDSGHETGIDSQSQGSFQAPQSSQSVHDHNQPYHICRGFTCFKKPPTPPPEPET
# [8] = mammalian cell cytotoxicity, dose response, cytotoxicity control, plate reader, cherry-pick samples (AID 504397); type: functional, cell-based
# [9] = target: T4, CAAX prenyl protease 2 (Saccharomyces cerevisiae S288c, UniProt Q03530); type: biochemical
# T4 sequence (Q03530 whole entry): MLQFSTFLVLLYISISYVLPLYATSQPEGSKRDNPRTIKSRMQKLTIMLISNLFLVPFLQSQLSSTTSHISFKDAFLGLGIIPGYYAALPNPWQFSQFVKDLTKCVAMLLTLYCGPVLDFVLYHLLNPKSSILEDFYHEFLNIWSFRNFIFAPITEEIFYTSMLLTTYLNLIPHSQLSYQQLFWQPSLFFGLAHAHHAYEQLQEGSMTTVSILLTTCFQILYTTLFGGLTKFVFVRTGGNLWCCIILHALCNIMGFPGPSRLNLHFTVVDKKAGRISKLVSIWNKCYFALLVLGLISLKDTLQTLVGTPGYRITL
# [10] = Luminescence Cell-Based Dose Response HTS to Identify Inhibitors of 5'UTR Stem-Loop Driven Prion Protein mRNA Translation in H4 Neuroglioblastoma Cells. [Related pubchem assays: 1827 (Project Summary), 1813 (Primary HTS)]; type: functional
# [11] = inhibitors of firefly luciferase expression or activity, dose response, H4 neuroglioma cells, luminescence (AID 1990); type: functional, cell-based
# [12] = target: T5, Hexokinase HKDC1 (Homo sapiens, UniProt Q2TB90); assay: HKDC1 hexokinase inhibitors, dose response, biochemical, W721R variant (AID 504729); type: functional
# T5 sequence (Q2TB90 whole entry): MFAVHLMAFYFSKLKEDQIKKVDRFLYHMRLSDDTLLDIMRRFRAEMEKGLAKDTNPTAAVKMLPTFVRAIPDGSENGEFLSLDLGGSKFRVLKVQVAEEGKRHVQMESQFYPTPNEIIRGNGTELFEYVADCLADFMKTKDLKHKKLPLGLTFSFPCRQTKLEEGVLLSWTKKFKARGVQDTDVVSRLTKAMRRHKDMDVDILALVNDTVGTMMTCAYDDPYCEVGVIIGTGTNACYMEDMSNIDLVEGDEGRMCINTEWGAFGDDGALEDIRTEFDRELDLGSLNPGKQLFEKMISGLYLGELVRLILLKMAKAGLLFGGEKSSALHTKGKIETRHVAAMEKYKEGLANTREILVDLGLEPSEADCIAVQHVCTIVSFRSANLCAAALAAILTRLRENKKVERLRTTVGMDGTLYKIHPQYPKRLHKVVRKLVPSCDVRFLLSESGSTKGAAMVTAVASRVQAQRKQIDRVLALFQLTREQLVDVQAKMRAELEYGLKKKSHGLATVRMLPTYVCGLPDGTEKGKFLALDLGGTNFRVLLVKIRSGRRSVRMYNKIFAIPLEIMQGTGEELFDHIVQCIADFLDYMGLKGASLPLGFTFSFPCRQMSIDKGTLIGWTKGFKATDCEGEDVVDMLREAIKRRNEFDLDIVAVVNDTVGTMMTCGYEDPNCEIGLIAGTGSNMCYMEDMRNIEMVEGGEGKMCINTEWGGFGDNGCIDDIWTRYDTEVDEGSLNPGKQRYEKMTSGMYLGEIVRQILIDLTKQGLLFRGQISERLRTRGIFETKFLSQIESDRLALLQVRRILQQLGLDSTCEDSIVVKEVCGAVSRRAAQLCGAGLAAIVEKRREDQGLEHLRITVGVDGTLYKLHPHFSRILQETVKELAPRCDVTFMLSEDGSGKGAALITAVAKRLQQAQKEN
# [13] = target: Voltage-gated inwardly rectifying potassium channel KCNH2 (Homo sapiens, UniProt Q12809); details: Potency;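 also: confirmatory quantitative high-throughput screen measuring inhibition of hERG channel activity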
# [14] = target: Heat shock protein HSP 90-alpha (Homo sapiens, UniProt P07900); assay: Luminescence-based dose response biochemical high throughput screening assay for inhibitors of the Heat Shock Protein 90 (HSP90). [Related pubchem assays: 1831 (Summary AID.), 1846 (Confirmation screen.), 1789 (Primary screen.)]
# [15] = target: T6, Protein skinhead-1 (Caenorhabditis elegans, UniProt P34707); type: functional
# T6 sequence (P34707 whole entry): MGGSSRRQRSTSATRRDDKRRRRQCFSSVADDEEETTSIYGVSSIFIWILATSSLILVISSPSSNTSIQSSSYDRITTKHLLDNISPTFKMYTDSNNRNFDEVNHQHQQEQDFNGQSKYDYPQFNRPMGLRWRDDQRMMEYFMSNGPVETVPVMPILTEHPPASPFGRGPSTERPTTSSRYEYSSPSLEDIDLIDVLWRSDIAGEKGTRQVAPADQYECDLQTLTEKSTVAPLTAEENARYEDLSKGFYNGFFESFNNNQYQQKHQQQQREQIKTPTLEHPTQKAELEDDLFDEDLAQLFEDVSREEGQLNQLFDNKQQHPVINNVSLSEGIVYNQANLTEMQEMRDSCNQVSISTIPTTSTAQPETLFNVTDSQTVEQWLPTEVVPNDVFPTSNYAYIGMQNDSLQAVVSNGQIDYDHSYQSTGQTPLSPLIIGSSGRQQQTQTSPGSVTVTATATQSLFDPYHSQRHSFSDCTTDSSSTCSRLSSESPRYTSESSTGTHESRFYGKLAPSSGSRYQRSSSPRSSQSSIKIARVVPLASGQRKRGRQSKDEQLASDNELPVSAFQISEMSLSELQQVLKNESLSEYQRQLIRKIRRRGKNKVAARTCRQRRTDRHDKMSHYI
# [16] = target: Beta-adrenergic receptor kinase 1 (Homo sapiens, UniProt P25098); assay: aptamer displacement from bead-bound GRK2 – biochemical, cherry pick 1, bead flow cytometry, dose response (AID 504500)
# [17] = target: T7, Beta-2 adrenergic receptor (Homo sapiens, UniProt P07550); assay: beta2AR agonists driving receptor internalization, dose response, cell-based, FAP fluorogen, flow cytometry, cherry pick 1 (AID 588763); type: functional
# T7 sequence (P07550 whole entry): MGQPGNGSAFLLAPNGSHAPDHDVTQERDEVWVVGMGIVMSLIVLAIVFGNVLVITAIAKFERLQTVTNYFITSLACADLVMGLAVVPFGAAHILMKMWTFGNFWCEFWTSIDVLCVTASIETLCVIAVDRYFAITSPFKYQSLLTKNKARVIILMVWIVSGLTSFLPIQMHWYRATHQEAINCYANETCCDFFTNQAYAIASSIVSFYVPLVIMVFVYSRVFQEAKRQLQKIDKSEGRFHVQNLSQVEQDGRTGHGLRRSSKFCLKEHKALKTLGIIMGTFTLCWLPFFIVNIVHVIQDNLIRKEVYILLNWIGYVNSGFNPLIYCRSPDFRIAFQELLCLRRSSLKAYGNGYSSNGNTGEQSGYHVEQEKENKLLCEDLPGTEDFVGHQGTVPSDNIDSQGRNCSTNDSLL
# [18] = target: T7, Beta-2 adrenergic receptor; assay: Dose response for HTS for Beta-2AR agonists via FAP method from Powderset3.; type: functional
# [19] = HIV-1 Env-mediated cell fusion inhibitors, dose response, CCR5-tropic Env (AID 2279); type: functional
# [20] = target: Cysteine protease ATG4B (Homo sapiens, UniProt Q9Y4P1); type: functional;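 also: Fluorescence-based dose-response confirmation assay measuring inhibition of ATG4B activity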
# [21] = target: Phospholipase A2 (Homo sapiens, UniProt P04054); type: functional;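 also: confirmatory dose-response counterscreen on phospholipase A2, testing hits that came from an ultra-high-throughput screen for ATG4B inhibitors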
# Phospholipase A2, sequence (P04054 whole entry, the tested form may be a part): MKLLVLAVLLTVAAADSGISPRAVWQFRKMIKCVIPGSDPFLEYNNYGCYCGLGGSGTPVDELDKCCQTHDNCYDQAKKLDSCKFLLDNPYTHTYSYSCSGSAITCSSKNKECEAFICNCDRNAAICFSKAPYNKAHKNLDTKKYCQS
# [22] = target: Envelope glycoprotein gp160 (Human immunodeficiency virus 1, UniProt Q6QLK5); assay: inhibitors of HIV fusion peptide binding, primary screen, biochemical, uHTS, fluorescence dequenching (AID 1986)
# Envelope glycoprotein gp160, sequence (Q6QLK5 whole entry, the tested form may be a part): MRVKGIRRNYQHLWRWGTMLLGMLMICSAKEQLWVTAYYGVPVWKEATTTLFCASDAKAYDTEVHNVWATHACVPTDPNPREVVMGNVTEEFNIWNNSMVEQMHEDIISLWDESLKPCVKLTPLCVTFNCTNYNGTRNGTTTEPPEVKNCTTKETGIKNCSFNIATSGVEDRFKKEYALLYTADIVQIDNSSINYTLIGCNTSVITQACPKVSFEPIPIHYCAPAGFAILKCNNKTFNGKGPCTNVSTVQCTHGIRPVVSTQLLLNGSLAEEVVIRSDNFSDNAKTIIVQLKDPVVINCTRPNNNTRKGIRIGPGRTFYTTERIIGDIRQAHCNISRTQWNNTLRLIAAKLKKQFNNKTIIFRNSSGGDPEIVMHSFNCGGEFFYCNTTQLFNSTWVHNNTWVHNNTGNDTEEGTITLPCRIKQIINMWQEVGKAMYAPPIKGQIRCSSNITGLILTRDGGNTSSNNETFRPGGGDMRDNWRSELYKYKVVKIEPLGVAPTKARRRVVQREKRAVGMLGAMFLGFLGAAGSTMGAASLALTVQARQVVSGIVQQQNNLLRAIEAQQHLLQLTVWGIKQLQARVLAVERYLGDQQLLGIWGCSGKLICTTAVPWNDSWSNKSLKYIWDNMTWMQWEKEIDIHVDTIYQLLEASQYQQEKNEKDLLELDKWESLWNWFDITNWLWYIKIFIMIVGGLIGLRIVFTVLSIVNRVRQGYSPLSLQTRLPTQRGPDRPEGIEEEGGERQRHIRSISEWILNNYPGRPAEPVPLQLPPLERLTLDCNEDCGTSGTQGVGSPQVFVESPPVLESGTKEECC
# [23] = target: T8, Carboxy-terminal domain RNA polymerase II polypeptide A small phosphatase 1 (Homo sapiens, UniProt Q9GZU7); assay: inhibitors of CTDSP1, concentration-response testing, biochemical assay, absorbance-based, actives from ultra-high-throughput screening (AID 540297); type: functional
# T8 sequence (Q9GZU7 whole entry): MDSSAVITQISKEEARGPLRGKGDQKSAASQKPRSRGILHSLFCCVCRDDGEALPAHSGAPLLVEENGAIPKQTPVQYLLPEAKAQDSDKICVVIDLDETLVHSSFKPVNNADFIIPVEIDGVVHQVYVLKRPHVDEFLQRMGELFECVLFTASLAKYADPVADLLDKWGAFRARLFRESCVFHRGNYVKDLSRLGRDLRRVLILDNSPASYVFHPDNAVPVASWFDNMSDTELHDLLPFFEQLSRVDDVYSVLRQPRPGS
# [24] = target: Glycogen synthase kinase-3 beta (Homo sapiens, UniProt P49841); assay: Inhibition of Human GSK-3 beta Activity Measured in Biochemical System Using Microfluidics - 2063-05_Inhibitor_Dose_DryPowder_Activity. [Related pubchem assays (depositor defined):AID2709]
# [25] = target: Glycogen synthase kinase-3 alpha (Homo sapiens, UniProt P49840); assay: Inhibition of Human GSK-3 alpha Activity Measured in Biochemical System Using Microfluidics - 2063-06_Inhibitor_Dose_DryPowder_Activity. [Related pubchem assays (depositor defined):AID2709]
# Glycogen synthase kinase-3 alpha, sequence (P49840 whole entry): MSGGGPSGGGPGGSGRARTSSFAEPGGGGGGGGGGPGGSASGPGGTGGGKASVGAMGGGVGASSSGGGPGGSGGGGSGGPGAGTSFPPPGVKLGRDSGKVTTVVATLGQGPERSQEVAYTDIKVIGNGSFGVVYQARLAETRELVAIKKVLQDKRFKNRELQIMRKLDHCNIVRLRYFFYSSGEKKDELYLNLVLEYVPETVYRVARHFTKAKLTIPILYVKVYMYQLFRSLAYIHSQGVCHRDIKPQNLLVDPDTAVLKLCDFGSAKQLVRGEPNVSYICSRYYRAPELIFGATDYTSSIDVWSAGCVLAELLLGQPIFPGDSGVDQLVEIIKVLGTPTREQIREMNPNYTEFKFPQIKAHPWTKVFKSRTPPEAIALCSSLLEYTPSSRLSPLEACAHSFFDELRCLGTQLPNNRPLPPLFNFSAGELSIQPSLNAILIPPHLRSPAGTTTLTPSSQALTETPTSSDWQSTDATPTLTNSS
# [26] = target: T9, Phospholipase D1 (Homo sapiens, UniProt Q13393); assay: PLD1 inhibitor potency in cells, dose response (AID 602151); type: functional;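 also: cellular PLD1 assay in Calu-1 cells stimulated with PMA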
# T9 sequence (Q13393 whole entry): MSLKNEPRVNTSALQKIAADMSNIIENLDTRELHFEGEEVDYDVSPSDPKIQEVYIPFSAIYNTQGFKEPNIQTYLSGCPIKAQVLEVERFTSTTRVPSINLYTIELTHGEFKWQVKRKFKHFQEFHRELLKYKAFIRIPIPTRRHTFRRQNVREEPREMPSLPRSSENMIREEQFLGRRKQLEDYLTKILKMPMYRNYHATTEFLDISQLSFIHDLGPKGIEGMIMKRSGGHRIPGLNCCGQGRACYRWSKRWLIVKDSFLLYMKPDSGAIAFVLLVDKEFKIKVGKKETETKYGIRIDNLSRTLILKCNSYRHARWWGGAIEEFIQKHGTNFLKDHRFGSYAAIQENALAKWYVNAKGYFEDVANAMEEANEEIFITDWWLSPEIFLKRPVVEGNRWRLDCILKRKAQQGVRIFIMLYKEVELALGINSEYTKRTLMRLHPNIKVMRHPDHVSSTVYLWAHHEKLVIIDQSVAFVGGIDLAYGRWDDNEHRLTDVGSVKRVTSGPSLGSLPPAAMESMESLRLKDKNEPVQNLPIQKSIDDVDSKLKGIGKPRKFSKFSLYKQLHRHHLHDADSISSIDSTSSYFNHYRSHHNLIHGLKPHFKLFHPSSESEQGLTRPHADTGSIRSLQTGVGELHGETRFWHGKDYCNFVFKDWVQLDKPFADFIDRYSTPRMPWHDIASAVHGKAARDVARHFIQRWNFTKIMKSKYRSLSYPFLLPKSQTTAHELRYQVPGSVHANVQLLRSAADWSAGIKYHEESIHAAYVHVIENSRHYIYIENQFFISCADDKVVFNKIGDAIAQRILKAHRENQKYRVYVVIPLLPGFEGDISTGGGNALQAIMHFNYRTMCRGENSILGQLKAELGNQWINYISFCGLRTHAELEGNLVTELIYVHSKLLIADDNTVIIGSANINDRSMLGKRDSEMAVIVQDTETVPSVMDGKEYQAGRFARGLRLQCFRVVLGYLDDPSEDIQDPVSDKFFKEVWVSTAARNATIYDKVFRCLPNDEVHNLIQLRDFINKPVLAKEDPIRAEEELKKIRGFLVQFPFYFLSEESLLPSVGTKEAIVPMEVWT
# [27] = target: T9, Phospholipase D1; assay: PLD1 purified enzyme concentration response. [Related pubchem assays (depositor defined):AID588854]; type: functional
# [28] = target: T10, Phospholipase D2 (Homo sapiens, UniProt O14939); assay: PLD2 inhibitor potency in cells, dose response (AID 602147); type: functional;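 also: cellular assay in HEK293 cells overexpressing GFP-tagged PLD2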
# T10 sequence (O14939 whole entry): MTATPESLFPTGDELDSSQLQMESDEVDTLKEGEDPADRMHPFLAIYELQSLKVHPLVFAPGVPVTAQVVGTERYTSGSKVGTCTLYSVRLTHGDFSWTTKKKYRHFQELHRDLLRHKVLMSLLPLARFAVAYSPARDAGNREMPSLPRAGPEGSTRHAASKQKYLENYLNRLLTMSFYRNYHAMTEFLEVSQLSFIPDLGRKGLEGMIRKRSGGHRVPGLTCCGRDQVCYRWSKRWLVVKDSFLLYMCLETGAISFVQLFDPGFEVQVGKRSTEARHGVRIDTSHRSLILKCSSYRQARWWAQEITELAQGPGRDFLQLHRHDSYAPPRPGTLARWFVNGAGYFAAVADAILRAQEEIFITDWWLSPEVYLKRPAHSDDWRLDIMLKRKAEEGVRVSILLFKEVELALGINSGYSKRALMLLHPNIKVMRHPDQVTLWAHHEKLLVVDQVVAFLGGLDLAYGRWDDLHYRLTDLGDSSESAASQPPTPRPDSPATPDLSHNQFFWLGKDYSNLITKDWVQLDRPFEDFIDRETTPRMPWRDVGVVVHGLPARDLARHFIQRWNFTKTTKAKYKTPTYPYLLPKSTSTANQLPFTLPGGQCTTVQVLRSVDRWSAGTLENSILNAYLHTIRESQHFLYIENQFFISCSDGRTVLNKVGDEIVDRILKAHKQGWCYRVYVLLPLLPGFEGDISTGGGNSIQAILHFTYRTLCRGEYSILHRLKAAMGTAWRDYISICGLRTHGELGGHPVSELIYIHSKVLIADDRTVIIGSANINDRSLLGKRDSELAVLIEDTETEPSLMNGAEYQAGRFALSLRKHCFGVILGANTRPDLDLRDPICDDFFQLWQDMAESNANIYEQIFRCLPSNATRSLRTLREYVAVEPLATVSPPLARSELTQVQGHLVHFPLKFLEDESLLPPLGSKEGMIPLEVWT
# [29] = target: T10, Phospholipase D2; assay: PLD2 purified enzyme concentration response. [Related pubchem assays (depositor defined):AID588854]; type: functional
# FAD-linked sulfhydryl oxidase ALR, sequence (P55789 whole entry): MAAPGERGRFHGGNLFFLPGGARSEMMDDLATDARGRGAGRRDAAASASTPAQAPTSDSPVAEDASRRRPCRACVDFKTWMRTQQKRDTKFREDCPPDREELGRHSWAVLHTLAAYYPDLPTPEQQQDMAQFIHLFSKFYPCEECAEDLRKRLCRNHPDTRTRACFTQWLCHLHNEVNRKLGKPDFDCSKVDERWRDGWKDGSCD
smiles,measurement,setting,value
CN1c2ccc(C=O)c3c(C=O)ccc(c23)N(C)C1(C)C,AC50,[1],1.54 µM (active)
same,EC50,[2],5.37 µM (inconclusive)
same,EC50,[3],> 120 µM (not active)
same,EC50,[4],59.9 µM (inconclusive)
same,EC50,[5],74 µM (inconclusive)
same,AC50,[6],0.199 µM (active)
same,IC50,[7],23 µM (active)
same,AC50,[8],45.7 µM (active)
same,AC50,[9],10.5 µM (active)
same,EC50,[10],15.9 µM (active)
same,EC50,[11],17.8 µM (active)
same,IC50,[12],13.1 µM (active)
CC(=O)O[C@]1(C(C)=O)CC[C@H]2[C@@H]3C=C(Cl)C4=CC(=O)[C@@H]5C[C@H]5[C@]4(C)[C@H]3CC[C@@]21C,AC50,[13],35.5 µM (inconclusive)
Cc1cc2ccccc2n1CCNC(=O)c1cccs1,IC50,[14],4.57 µM (active)
same,IC50,[15],> 100 µM (inactive)
same,EC50,[16],3.5 µM (active)
Cc1ccc(NC(=O)C(c2ccc(Cl)cc2)N2CCOCC2)cc1 (centres undefined),EC50,[17],2.18 µM (active)
same,EC50,[18],1.51 µM (active)
CCOc1cc(/C=C2\SC(=O)N(CC(=O)Nc3ccccc3F)C2=O)cc([N+](=O)[O-])c1O,IC50,[19],43.6 µM (active)
same,IC50,[20],9.16 µM (active)
same,IC50,[21],7.23 µM (active)
same,IC50,[22],26.9 µM (active)
same,IC50,[23],9.89 µM (active)
COC(=O)c1ccc(CSc2nnc(-c3ccncc3)o2)cc1,AC50,[24],0.395 µM (active)
same,AC50,[25],1.67 µM (active)
C[C@@H](CN1CCC(n2c(=O)[nH]c3ccccc32)CC1)NC(=O)COc1ccccc1,IC50,[26],0.002 µM (active)
same,IC50,[27],0.057 µM (active)
same,IC50,[28],3.8 µM (active)
same,IC50,[29],5.8 µM (active)
